# Test results published in US7083969B2, “Serratia marcescens strain” (Korea Research Institute of Bioscience and Biotechnology, priority 1997, dated 2006).
# Key:
# B lymphocyte = assay: Antibody production of B lymphocytes stimulated with lipopolysaccharide; type: cell-based, mice; conditions: for effect on antibody production / immune response of B lymphocytes (words): non-cytotoxic concentration range (3-100 nM)
# Excerpt: (§1) Germ-free test animals, mice BDF1 and B6C3F1, obtained from Genetic Resources Center, Korean Research Institute of Bioscience and Biotechnology in the Korean Institute of Science and Technology, were used for the assay of the immunosuppressive activity of prodigiosin. […] At such concentrations as show no cytotoxic effects, prodigiosin cannot suppress the immune response of B lymphocytes. […] This selective immunosuppression for T lymphocytes is not ascribed to the selective cytotoxicity for T lymphocytes. The same immunosuppression results as in the ex vivo experiments were obtained in in vivo experiments. When T lymphocyte activity was measured by use of a graft versus host reaction and a T cell-dependent antibody producing reaction, the prodigiosin suppressed the immune response, but exerted no toxicity on animals. Therefore, the immunosuppressive activity of the prodigiosin is thought to be attributed to the selective suppression for T lymphocyte activity.
# (§2) The influence of prodigiosin on the functions of lymphocytes was measured using three reaction systems. First, the ability of B lymphocyte to proliferate in response to lipopolysaccharide stimulus was assessed. For this, on the third day after stimulation with lipopolysaccharide, the antibody production of the B lymphocyte was measured. When B lymphocytes are stimulated with lipopolysaccharide, they can produce antibodies without the aid of T lymphocyte. Second, a mixed lymphocyte reaction was induced in order to assess the effect on T-cell response. The reaction needs no aids from the B lymphocyte. On the third day after two types of heteroimmune cells, which are different from each other in histocompatibility antigen, were mixed to stimulate the activity of T lymphocytes, the T-cell response-was assessed. Third, the T-cell dependent antibody producing reaction was utilized to assess the effect of prodigiosin on the simultaneous immune response of both of the B and T lymphocytes. This reaction requires the functions of B and T lymphocytes, simultaneously. On the fifth day after immunization of the lymphocytes with the red blood cells of sheep, their antibody production ability was assessed.
# (§3) In Table 3, the values are relative to the immune response of the lymphocytes untreated with prodigiosin.
# T lymphocytes [1] = assay: Mixed lymphocyte reaction (T-cell response); type: cell-based, mice; conditions: for Immune Response (%) T cell: third day
# Excerpt: as §1, §2, §3
# B and T lymphocytes = assay: T-cell dependent antibody producing reaction in vitro (sheep red blood cells); type: cell-based, mice
# Excerpt: as §1, §2, §3
# [2] = tested on: CD4 T cell (helper T cell); assay: Selective cytotoxicity: proportion of CD4 T cells after treatment; type: cell-based, mice; conditions: proportion of the cells
# Excerpt: as §1
# (§4) Whether the selective immunosuppression of prodigiosin for T cells is attributed to the selective cytotoxicity for T cells or not was assayed by measuring the proportion of the cells. On the third day after treatment of the immune cells with prodigiosin, the number of the cells was counted. Because T lymphocytes consist of CD4 T cell (helper T cell) and CD8 T cell (cytotoxic T cell), the proportion of T and B lymphocytes was calculated in this Example.
# [3] = tested on: CD8 T cell (cytotoxic T cell); assay: Selective cytotoxicity: proportion of CD8 T cells after treatment; type: cell-based, mice; conditions: proportion of the cells
# Excerpt: as §1, §4
# T lymphocytes [4] = assay: Graft versus host reaction in vivo (lymphatic node weight); parameters: species or system BDF1 mice; conditions: for Wt. (mg) of Lymphatic node: sixth day after transplantation
# Excerpt: as §1
# (§5) A graft versus host reaction was utilized for the in vivo assay of prodigiosin's immunosuppression. The graft versus host reaction enables an assessment of the immune response of T lymphocytes. On the sixth day after transplantation of the T lymphocytes of BDF1 mice different in histocompatibility antigen, the lymphatic nodes were measured for weight, thereby assessing the immune response of T lymphocyte to the grafted heteroantigens. The prodigiosin was peritoneally injected at a dose of 30–100 mg per kg of body weight for five days while cyclophosphamide, as a positive control, was peritoneally injected at a dose of 100 mg/kg for five days. The body weights of the injected mice were measured to compare the toxicity of prodigiosin with that of cyclophosphamide. […] As for the body weight, it was not changed in the mice injected with prodigiosin at an effective concentration.
# [5] = Body weight of injected mice in graft versus host experiment (toxicity); type: in vivo
# Description: as §5
# [6] = Weight ratio of the spleen to the body (toxicity); type: in vivo, mice
# Description: A T cell-dependent immune response reaction was used to assess the influence of prodigiosin on T lymphocytes in vivo. Test animals were immunized with sheep red blood cells by peritoneal injection. 4 days after the immunization, the number of the antibody producing cells was counted. Prodigiosin was peritoneally injected everyday. Based on the number of the […] cells in the non-treated animals, the influence of prodigiosin on T lymphocytes in vivo was assessed as percentage. Also, the weight ratio of the spleen to the body was measured to assay the toxicity of prodigiosin to the animals. Cyclophosphamide was used as a positive control.
# CD8 T lymphocytes = assay: Immunosuppressive activity on CD8 T lymphocytes; type: cell-based
# [7] = 3 nM, third day after treatment
# [8] = 10 mg/kg peritoneally for five days
# [9] = 30 mg/kg peritoneally for five days
smiles,measurement,setting,value
"CCCCCC1=C/C(=C/c2[nH]c(-c3ccc[nH]3)cc2OC)N=C1C [Prodigiosin, prodigiosin]",Immune Response (%) B cell,"B lymphocyte; 3 nM, antibody production, third day after lipopolysaccharide, relative to untreated lymphocytes",116%
same,Immune Response (%) B cell,"B lymphocyte; 10 nM, third day",108%
same,Immune Response (%) B cell,"B lymphocyte; 30 nM, third day",100%
same,Immune Response (%) B cell,"B lymphocyte; 100 nM, third day",97%
same,effect on antibody production / immune response of B lymphocytes (words),B lymphocyte,no influence
same,effect on antibody production / immune response of B lymphocytes (words),B lymphocyte; listed as prodigiosin,not at all
same,Immune Response (%) T cell,"T lymphocytes [1]; 3 nM, mixed lymphocyte reaction, relative to untreated lymphocytes",111%
same,Immune Response (%) T cell,T lymphocytes [1]; 10 nM,110%
same,Immune Response (%) T cell,T lymphocytes [1]; 30 nM,67%
same,Immune Response (%) T cell,T lymphocytes [1]; 100 nM,30%
same,immune response in which T lymphocytes are involved,T lymphocytes [1]; Table 3 concentration range,significantly suppressed
same,Immune Response (%) B/T cells,"B and T lymphocytes; 3 nM, antibody production, fifth day after sheep red blood cells, relative to untreated lymphocytes",81%
same,Immune Response (%) B/T cells,"B and T lymphocytes; 10 nM, fifth day",74%
same,Immune Response (%) B/T cells,"B and T lymphocytes; 30 nM, fifth day",64%
same,Immune Response (%) B/T cells,"B and T lymphocytes; 100 nM, fifth day",34%
same,Proliferation (%) CD4 T cell,[2]; [7],31%
same,Proliferation (%) CD4 T cell,"[2]; 10 nM, third day",31%
same,Proliferation (%) CD4 T cell,"[2]; 30 nM, third day",31%
same,Proliferation (%) CD4 T cell,"[2]; 100 nM, third day",29%
same,Proliferation (%) CD8 T cell,[3]; [7],13%
same,Proliferation (%) CD8 T cell,"[3]; 10 nM, third day",13%
same,Proliferation (%) CD8 T cell,"[3]; 30 nM, third day",12%
same,Proliferation (%) CD8 T cell,"[3]; 100 nM, third day",10%
same,Wt. (mg) of Lymphatic node,T lymphocytes [4]; [8],1.12 mg
same,Wt. (mg) of Lymphatic node,T lymphocytes [4]; [9],0.98 mg
same,immune response of T lymphocytes in graft versus host reaction,T lymphocytes [4]; peritoneal injection for five days,potentially suppress
same,Body weight,[5]; [8],20 g
same,Body weight,[5]; [9],21 g
same,body weight change,[5]; at an effective concentration,not changed
same,Wt. Ratio of spleen/body (%),[6]; 10 mg/kg peritoneally everyday,95%
same,Wt. Ratio of spleen/body (%),[6]; 30 mg/kg peritoneally everyday,84%
same,toxicity judged by weight ratio of the spleen to the body,[6]; at effective concentrations,no toxicity
same,immunosuppressive activity on CD8 T lymphocytes,CD8 T lymphocytes,has an immunosuppressive activity
